Our source for the Kd and CC50 values is patent US8481495B2 (TetraLogic Pharmaceuticals Corporation, priority 2009, dated 2013).

For one assay, the target named is T1, XIAP BIR-3 (Homo sapiens, UniProt P98170).
T1 construct: 40 nM of the respective IAP BIR3
The assay can be described thus: Fluorescence polarization binding to XIAP BIR-3 with labeled peptide AbuRPF-K(5-Fam)-NH2. To be noted: XIAP BIR-3, 40 nM BIR3, 5 nM labeled peptide, 15 min RT, pH 7.5; read-out: XIAP, nM (binding affinity KD, as range). The procedure: (§1) The binding affinities of the compounds are reported as a KD value (μM). Briefly, various concentrations of test peptides were mixed with 5 nM of the fluorescently labeled peptide (i.e., a mutated N-terminal Smac peptide-AbuRPF-K(5-Fam)-NH2) and 40 nM of the respective IAP BIR3 for 15 min at RT in […] of 0.1M Potassium Phosphate buffer, pH 7.5 containing […] bovine g-globulin. Following incubation, the polarization values (mP) were measured on a Victor2V™ (available from PerkinElmer® Life Sciences) using a 485 nm excitation filter and a 520 nm emission filter. The reported binding affinities (KD values) are supplied as ranges (A=<0.1 μM, B=0.1 μM to 1 μM, C=>1 μM to 10 μM, D=>10 μM).

In the next assay the target is T2, cIAP-1 BIR-3 (Homo sapiens, UniProt Q13490).
T2 construct: 40 nM of the respective IAP BIR3
T2 sequence (Q13490 253-363 limits assumed): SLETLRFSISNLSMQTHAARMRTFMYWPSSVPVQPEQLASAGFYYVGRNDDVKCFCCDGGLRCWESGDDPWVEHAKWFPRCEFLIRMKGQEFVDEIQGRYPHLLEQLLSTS
The assay can be described thus: Fluorescence polarization binding to cIAP-1 BIR-3 with labeled peptide AbuRPF-K(5-Fam)-NH2. To be noted: cIAP-1 BIR-3, 40 nM BIR3, 5 nM labeled peptide, 15 min RT, pH 7.5; read-out: cIAP1, nM (binding affinity KD, as range). Here is the method: as §1
(In general: Fluorescence polarisation rises when a labelled molecule tumbles more slowly, as on binding a larger partner.)

Another assay has as its system SK-OV-3 cells. The assay can be described thus: MTT cell growth inhibition assay in ovarian cancer cell line SK-OV-3. To be noted: Homo sapiens, 72 hrs incubation, read-out: SKOV3, nM (CC50, concentration giving 50% cell survival, as range). The class given is cell-based. Here is the method: Compounds of the invention also were tested for their ability to inhibit the growth of an ovarian cancer cell line, SK-OV-3. A known assay previously used for measuring cell growth (as described in Hansen, M. B., Nielsen, S. E., and Berg, K. (1989) J. Immunol. Methods 119, 203-210 and incorporated herein by reference in its entirety) was used. Briefly, SK-OV-3 cells are seeded in 96-well plates in McCoy's medium containing 10% fetal bovine serum albumin (5,000 per well) and incubated overnight at 37° C. The next day, test compounds are added at various concentrations (0.003-10 μM) and the plates are incubated at 37° C. for an additional 72 hrs. This incubation time was considered to be optimal for measuring inhibitory effects of the different compounds tested. 50 microliters of 5 mg/mL MTT reagent is added to each well and the plates are incubated at 37° C. for another three (3) hours. At the end of the three (3) hour incubation period, 50 microliters of DMSO is added to each well to dissolve cells and the optical density (OD) of the wells is measured with a microplate reader (Victor^2 1420™, Wallac, Finland) at 535 nm. Cell survival (CS) was calculated using the following equation: CS=(OD treated well/mean OD control wells)×100%.
The CC50 (reported in the following tables), is defined as the drug concentration that results in 50% cell survival (CS), and is derived by calculating the point where the dose-response curve crosses the 50% CS point using GraphPad Prism® graphing software. The reported CC50 values are supplied as ranges (A=<0.1 μM, B=0.1 μM to 1 μM, C=>1 μM to 10 μM, D=>10 μM).

T1 sequence (P98170 241-356 limits assumed): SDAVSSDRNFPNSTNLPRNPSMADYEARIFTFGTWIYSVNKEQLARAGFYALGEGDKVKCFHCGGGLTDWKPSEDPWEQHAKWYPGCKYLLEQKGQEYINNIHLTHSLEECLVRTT

On to `CNC(C)C(=O)NC(C(=O)N1CCC2C1C(C(=O)NC1CCCc3ccccc31)CN2C(=O)C1CC1)C1CCCCC1` (stereo not drawn) [Example 33, 4-[2-Cyclohexyl-2-(2-methylamino-propionylamino)-acetyl]-1-cyclopropanecarbonyl-octahydro-pyrrolo[3,2-b]pyrrole-3-carboxylic acid (1,2,3,4-tetrahydro-naphthalen-1-yl)-amide], for which the Kd at XIAP BIR-3 and at cIAP-1 BIR-3 was under 100 nM throughout. In addition, the CC50 in the assay with SK-OV-3 cells is under 100 nM.
As for `CN[C@@H](C)C(=O)N[C@H](C(=O)N1CC[C@@H]2[C@H]1[C@@H](C(=O)Nc1ccccc1)CN2S(C)(=O)=O)C1CCCCC1` [Example 8, 4-[2-Cyclohexyl-2-(2-methylamino-propionylamino)-acetyl]-1-methanesulfonyl-octahydro-pyrrolo[3,2-b]pyrrole-3-carboxylic acid phenylamide], the Kd at XIAP BIR-3 is 100 to 1000 nM; at cIAP-1 BIR-3, under 100 nM. For the same compound, the CC50 in the assay with SK-OV-3 cells was under 100 nM.
In the case of `CN[C@@H](C)C(=O)N[C@H](C(=O)N1CC[C@H]2NC[C@@H](C(=O)Nc3ccccc3)[C@H]21)C1CCCCC1` [Example 32], the Kd on XIAP BIR-3 was 100 to 1000 nM; on cIAP-1 BIR-3 it was under 100 nM. Moreover, in the assay with SK-OV-3 cells, the CC50 fell in the range of 1000 to 10000 nM.
The like results for `CN[C@@H](C)C(=O)N[C@H](C(=O)N1CC[C@@H]2[C@H]1[C@@H](C(=O)NCc1ccccc1)CN2C(C)=O)C(C)(C)C` [Example 38, 1-Acetyl-4-[3,3-dimethyl-2-(2-methylamino-propionylamino)-butyryl]-octahydro-pyrrolo[3,2-b]pyrrole-3-carboxylic acid benzylamide] were, in that order, under 100 nM, under 100 nM and under 100 nM.
The like results for `CN[C@@H](C)C(=O)N[C@H](C(=O)N1CC[C@@H]2[C@H]1[C@@H](C(=O)Nc1cccc3ccccc13)CN2S(C)(=O)=O)C1CCCCC1` [Example 17, 4-[2-Cyclohexyl-2-(2-methylamino-propionylamino)-acetyl]-1-methanesulfonyl-octahydro-pyrrolo[3,2-b]pyrrole-3-carboxylic acid naphthalen-1-ylamide] were, in that order, under 100 nM, under 100 nM and under 100 nM.
The like results for `CN[C@@H](C)C(=O)N[C@H](C(=O)N1CC[C@@H]2[C@H]1[C@@H](C(=O)Nc1ccc3ccccc3n1)CN2S(C)(=O)=O)C(C)(C)C` [Example 52, 4-[3,3-Dimethyl-2-(2-methylamino-propionylamino)-butyryl]-1-methanesulfonyl-octahydro-pyrrolo[3,2-b]pyrrole-3-carboxylic acid quinolin-2-ylamide] were, in that order, 100 to 1000 nM, under 100 nM and under 100 nM.
Take `CN[C@@H](C)C(=O)N[C@H](C(=O)N1CC[C@@H]2[C@H]1[C@@H](C(=O)Nc1cccc3ccccc13)CN2C(C)=O)C(C)(C)C` [Example 37, 1-Acetyl-4-[3,3-dimethyl-2-(2-methylamino-propionylamino)-butyryl]-octahydro-pyrrolo[3,2-b]pyrrole-3-carboxylic acid naphthalen-1-ylamide]: the Kd on XIAP BIR-3 and on cIAP-1 BIR-3 was under 100 nM throughout. Besides, the CC50 in the assay with SK-OV-3 cells was under 100 nM.
Turning to `CN[C@@H](C)C(=O)N[C@H](C(=O)N1CC[C@@H]2[C@H]1[C@@H](C(=O)N[C@H]1CCCc3ccccc31)CN2S(C)(=O)=O)C(C)(C)C` [Example 23, 4-[3,3-Dimethyl-2-(2-methylamino-propionylamino)-butyryl]-1-methanesulfonyl-octahydro-pyrrolo[3,2-b]pyrrole-3-carboxylic acid (1,2,3,4-tetrahydro-naphthalen-1-yl)-amide], the Kd at XIAP BIR-3 and on cIAP-1 BIR-3 was under 100 nM each time. Also, in the assay with SK-OV-3 cells, the CC50 fell in the range of 100 to 1000 nM.
Turning to `CN[C@@H](C)C(=O)N[C@H](C(=O)N1CC[C@@H]2[C@H]1[C@@H](C(=O)N[C@H]1CCc3ccccc31)CN2S(C)(=O)=O)C1CCCCC1` [Example 12, 4-[2-Cyclohexyl-2-(2-methylamino-propionylamino)-acetyl]-1-methanesulfonyl-octahydro-pyrrolo[3,2-b]pyrrole-3-carboxylic acid indan-1-ylamide], the dissociation constant (Kd) was 100 to 1000 nM on XIAP BIR-3 and under 100 nM on cIAP-1 BIR-3. The CC50 in the assay with SK-OV-3 cells fell in the range of 100 to 1000 nM.
In the case of `CN[C@@H](C)C(=O)N[C@H](C(=O)N1CC[C@@H]2[C@H]1[C@@H](C(=O)NCc1ccccc1)CN2S(C)(=O)=O)C1CCCCC1` [Example 2, 4-[2-Cyclohexyl-2-(2-methylamino-propionylamino)-acetyl]-1-methanesulfonyl-octahydro-pyrrolo[3,2-b]pyrrole-3-carboxylic acid benzylamide], the Kd at XIAP BIR-3 and on cIAP-1 BIR-3 was under 100 nM each time. In addition, in the assay on SK-OV-3 cells, the CC50 was under 100 nM.
With `CN[C@@H](C)C(=O)N[C@H](C(=O)N1CC[C@@H]2[C@H]1[C@@H](C(=O)NCC1CCCCC1)CN2S(C)(=O)=O)C1CCCCC1` [Example 19, 4-[2-Cyclohexyl-2-(2-methylamino-propionylamino)-acetyl]-1-methanesulfonyl-octahydro-pyrrolo[3,2-b]pyrrole-3-carboxylic acid cyclohexylmethyl-amide], the Kd on XIAP BIR-3 and at cIAP-1 BIR-3 was under 100 nM in each case. Moreover, the CC50 in the assay with SK-OV-3 cells was under 100 nM.
In the case of `CN[C@@H](C)C(=O)N[C@H](C(=O)N1CC[C@@H]2[C@H]1[C@@H](C(=O)N[C@@H]1CCCc3ccccc31)CN2S(C)(=O)=O)C1CCCCC1` [Example 1, 4-[2-Cyclohexyl-2-(2-methylamino-propionylamino)-acetyl]-1-methanesulfonyl-octahydro-pyrrolo[3,2-b]pyrrole-3-carboxylic acid (1,2,3,4-tetrahydro-naphthalen-1-yl)-amide], the dissociation constant Kd on XIAP BIR-3 and at cIAP-1 BIR-3 was under 100 nM throughout. Further, the CC50 in the assay with SK-OV-3 cells is under 100 nM.
For the compound `CNC(=O)N1C[C@H](C(=O)NCc2ccc(F)cc2)[C@@H]2[C@H]1CCN2C(=O)[C@@H](NC(=O)[C@H](C)NC)C(C)(C)C` [Example 41, 4-[3,3-Dimethyl-2-(2-methylamino-propionylamino)-butyryl]-hexahydro-pyrrolo[3,2-b]pyrrole-1,3-dicarboxylic acid 3-(4-fluoro-benzylamide) 1-methylamide], the Kd at XIAP BIR-3 and at cIAP-1 BIR-3 was under 100 nM each time. For the same compound, in the assay on SK-OV-3 cells, the CC50 was under 100 nM.
For the compound `CN[C@@H](C)C(=O)N[C@H](C(=O)N1CC[C@@H]2[C@H]1[C@@H](C(=O)N[C@@H](Cc1ccccc1)C(=O)OC)CN2S(C)(=O)=O)C1CCCCC1` [Example 10, 2-({4-[2-Cyclohexyl-2-(2-methylamino-propionylamino)-acetyl]-1-methanesulfonyl-octahydro-pyrrolo[3,2-b]pyrrole-3-carbonyl}-amino)-3-phenyl-propionic acid methyl ester], the dissociation constant Kd at XIAP BIR-3 and at cIAP-1 BIR-3 was 100 to 1000 nM each time. Further, in the assay on SK-OV-3 cells, the CC50 is 1000 to 10000 nM.
For `CN[C@@H](C)C(=O)N[C@H](C(=O)N1CC[C@H]2NC[C@H](C(=O)Nc3ccccc3)[C@H]21)C1CCCCC1` [Example 31], the equilibrium dissociation constant (Kd) on XIAP BIR-3 is 100 to 1000 nM; at cIAP-1 BIR-3, under 100 nM. Also, in the assay on SK-OV-3 cells, the CC50 is 100 to 1000 nM.

Usually Kd stands for the concentration at which binding is half-saturated.
